These results are taken from patent publication US20050154230A1, “Urea derivatives” (Bayer HealthCare AG, priority 2001, published 2005).

Series [1] concerns the target T1, human VR1 (Homo sapiens, UniProt Q8NER1).
T1 construct: expressed in transfected cells
Description: Capsaicin-induced Ca2+ influx in the human VR1-transfected CHO cell line (Assay 1). The series is classed as cell-based. Particulars: human VR1-CHOluc9aeq cells, 10 nM capsaicin; compound purity about 40 to 90%; read-out: hVR1 class. The procedure: [Measurement of Capsaicin-Induced Ca^2+ Influx in the Human VR1-Transfected CHO Cell Line] (Assay 1)
(1) Establishment of the Human VR1-CHOluc9aeq Cell Line
The cloned hVR1 cDNA was constructed with pcDNA3 vector and transfected into a CHOluc9aeq cell line. The cell line contains aequorin and CRE-luciferase reporter genes as read-out signals. The transfectants were cloned by limiting dilution in selection medium (DMEM/F12 medium (Gibco BRL) supplemented with 10% FCS, 1.4 mM Sodium pyruvate, 20 mM HEPES, 0.15% Sodium bicarbonate, 100 U/ml penicillin, 100 μg/ml streptomycin, 2 mM glutamine, non-essential amino acids and 2 mg/ml G418). Ca^2+ influx was examined in the capsaicin-stimulated clones. […] The human VR1-CHOluc9aeq cells were maintained in the selection medium and passaged every 3-4 days at 1-2.5×10^5 cells/flask ([…]).
(2) Measurement of Ca^2+ Influx Using FDSS-3000
Human VR1-CHOluc9aeq cells were suspended in a culture medium which is the same as the selection medium except for G418 and seeded at a density of 1,000 cells per well into 384-well plates (black walled clear-base/Nalge Nunc International). […] After washing twice with assay buffer the cells were incubated with a test compound or vehicle for 20 min at 25° C. […] Integral R was calculated and compared with controls.

T1 sequence (Q8NER1 whole entry): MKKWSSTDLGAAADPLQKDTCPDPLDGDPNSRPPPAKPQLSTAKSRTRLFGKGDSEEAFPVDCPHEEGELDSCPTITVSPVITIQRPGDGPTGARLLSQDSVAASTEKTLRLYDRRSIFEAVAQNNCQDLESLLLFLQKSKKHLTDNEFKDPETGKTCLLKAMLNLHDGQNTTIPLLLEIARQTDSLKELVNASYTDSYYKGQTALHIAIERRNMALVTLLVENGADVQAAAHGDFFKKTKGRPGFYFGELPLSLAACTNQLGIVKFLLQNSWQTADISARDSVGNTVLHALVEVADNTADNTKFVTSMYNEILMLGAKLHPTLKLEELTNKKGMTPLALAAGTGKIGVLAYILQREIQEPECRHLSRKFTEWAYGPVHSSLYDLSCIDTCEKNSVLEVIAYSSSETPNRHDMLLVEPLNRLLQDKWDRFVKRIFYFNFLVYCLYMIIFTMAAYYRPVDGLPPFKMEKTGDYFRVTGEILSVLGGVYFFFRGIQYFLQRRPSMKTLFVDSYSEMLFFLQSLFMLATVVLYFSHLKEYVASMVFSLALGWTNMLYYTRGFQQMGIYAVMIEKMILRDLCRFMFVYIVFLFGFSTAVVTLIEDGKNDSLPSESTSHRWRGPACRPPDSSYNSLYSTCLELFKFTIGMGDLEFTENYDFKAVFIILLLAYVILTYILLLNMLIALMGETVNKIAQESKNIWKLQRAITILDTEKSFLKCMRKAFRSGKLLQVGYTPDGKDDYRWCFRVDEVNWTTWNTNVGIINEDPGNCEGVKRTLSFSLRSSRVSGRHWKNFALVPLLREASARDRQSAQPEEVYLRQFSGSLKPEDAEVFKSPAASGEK

`O=C(Nc1cc([N+](=O)[O-])ccc1F)Nc1ccccc1CCO` [Example 112]: the melting point worked out at 183 °C. Also, in series [1], the IC50 was 500 to 1000 nM.
For `O=C(Nc1ccc(Cl)c([N+](=O)[O-])c1)Nc1ccccc1CCO` [Example 113] the same measures were 170 °C and 100 to 500 nM.
On the same counts, the results for `O=C(Nc1ccc(Br)cc1)Nc1ccccc1CCO` [Example 114] are 208 °C and 500 to 1000 nM.
For `Cc1cc(C)c(NC(=O)Nc2ccccc2CCO)c(C)c1` [Example 115] the same measures were 243 °C and 500 to 1000 nM.
In the case of `Cc1cccc(C)c1NC(=O)Nc1ccccc1CCO` [Example 116], the melting point was determined as 226 °C. In addition, the IC50 in series [1] fell in the range of 500 to 1000 nM.
On the same counts, the results for `CC(=O)c1cccc(NC(=O)Nc2ccccc2CCO)c1` [Example 117] are 177 °C and 500 to 1000 nM.
For `COC(=O)c1ccccc1NC(=O)Nc1ccccc1CCO` [Example 118], the melting point is 128 °C. Moreover, in series [1], the IC50 is 500 to 1000 nM.
`O=C(NCc1ccccc1F)Nc1ccccc1CCO` [Example 119] had a melting point of 141 to 143 °C. Further, the IC50 in series [1] lay in the range of 500 to 1000 nM.
For `O=C(NCc1cccc(F)c1)Nc1ccccc1CCO` [Example 120] the same measures were 160 to 162 °C and 500 to 1000 nM.
The compound `O=C(NCc1ccc(F)cc1)Nc1ccccc1CCO` [Example 121] came in with a melting point of 165 to 167 °C. Also, the IC50 in series [1] is 500 to 1000 nM.
Turning to `CN(C)c1ccc(NC(=O)Nc2ccccc2CCO)cc1` [Example 122], the melting point was in the range of 187 to 188 °C. In addition, the IC50 in series [1] lay within 500 to 1000 nM.
For `Cc1ccccc1CNC(=O)Nc1ccccc1CCO` [Example 123] the same measures were 186 to 188 °C and 500 to 1000 nM.
On the same counts, the results for `Cc1cccc(CNC(=O)Nc2ccccc2CCO)c1` [Example 124] are 148 to 150 °C and 500 to 1000 nM.
For the compound `Cc1ccc(CNC(=O)Nc2ccccc2CCO)cc1` [Example 125], the melting point lay in the range of 181 to 183 °C. Also, the IC50 in series [1] is 500 to 1000 nM.
As to `O=C(NCc1ccccc1Cl)Nc1ccccc1CCO` [Example 126], the melting point fell in the range of 183 to 185 °C. In series [1], the IC50 was in the range of 500 to 1000 nM.
In the case of `COc1ccc(CNC(=O)Nc2ccccc2CCO)cc1` [Example 127], the melting point was 175 to 177 °C. Also, the IC50 in series [1] was 500 to 1000 nM.
`Cc1cccc(NC(=O)Nc2ccccc2CCO)c1` [Example 129]: the melting point came to 186 °C. In addition, the IC50 in series [1] was 500 to 1000 nM.
`O=C(Nc1ccc(F)cc1)Nc1ccccc1CCO` [Example 131]: the melting point came to 183 °C. Moreover, the IC50 in series [1] lay in the range of 500 to 1000 nM.
Consider `O=C(Nc1cccc(F)c1)Nc1ccccc1CCO` [Example 132], for which the melting point amounted to 166 °C. Besides, the IC50 in series [1] lay in the range of 500 to 1000 nM.
`Cc1ccc(NC(=O)Nc2ccccc2CCO)c(C)c1` [Example 133] had a melting point of 181 °C. Also, the IC50 in series [1] is 500 to 1000 nM.
For `COc1ccccc1NC(=O)Nc1ccccc1CCO` [Example 134] the same measures were 154 °C and 500 to 1000 nM.
On the same counts, the results for `COc1cccc(NC(=O)Nc2ccccc2CCO)c1` [Example 135] are 169 °C and 500 to 1000 nM.
In the case of `COc1ccc(NC(=O)Nc2ccccc2CCO)cc1` [Example 136], the melting point was 186 °C. The IC50 in series [1] fell in the range of 500 to 1000 nM.
As for `O=C(Nc1ccc(F)cc1F)Nc1ccccc1CCO` [Example 145], the melting point is 174 to 176 °C (dec.). Also, the IC50 in series [1] lay in the range of 500 to 1000 nM.
For the compound `CCOc1ccccc1NC(=O)Nc1ccccc1CCO` [Example 146], the melting point was 112 to 114 °C (dec.). For the same compound, the IC50 in series [1] fell in the range of 500 to 1000 nM.
For `O=C(Nc1ccccc1CCO)Nc1ccccc1[N+](=O)[O-]` [Example 147] the same measures were 112 to 114 °C and 500 to 1000 nM.
For `Cc1ccc(NC(=O)Nc2ccccc2CCO)cc1Cl` [Example 148] the same measures were 195 to 196 °C and 500 to 1000 nM.
As for `O=C(Nc1ccccc1CCO)Nc1cccc2ccccc12` [Example 149], the melting point is 188 to 191 °C (dec.). In addition, the IC50 in series [1] was in the range of 500 to 1000 nM.
On the same counts, the results for `COc1ccc(NC(=O)Nc2ccccc2CCO)c(OC)c1` [Example 150] are 189 to 190 °C and 500 to 1000 nM.
In turn, `COc1ccc(OC)c(NC(=O)Nc2ccccc2CCO)c1` [Example 151] had a melting point of 157 to 158 °C. The IC50 in series [1] lay in the range of 500 to 1000 nM.
`O=C(Nc1ccccc1CCO)Nc1ccccc1C(F)(F)F` [Example 152]: the melting point was in the range of 180 to 182 °C. In addition, the IC50 in series [1] fell in the range of 500 to 1000 nM.
For `O=C(NCc1ccccc1)Nc1ccccc1CCO` [Example 153] the same measures were 149 to 150 °C and 500 to 1000 nM.
`O=C(Nc1cc(Cl)nc(Cl)c1)Nc1ccccc1CCO` [Example 154] gave a melting point of 194 °C. The IC50 in series [1] lay in the range of 500 to 1000 nM.
For `CC(NC(=O)Nc1ccccc1CCO)c1cccc2ccccc12` (stereo not drawn) [Example 155], the melting point was 176 °C. The IC50 in series [1] was 500 to 1000 nM.
On the same counts, the results for `CSc1ccc(NC(=O)Nc2ccccc2CCO)cc1` [Example 156] are 176 to 177 °C and 500 to 1000 nM.
For `O=C(Nc1ccccc1CCO)Nc1ccccc1Cc1ccccc1` [Example 157] the same measures were 162 to 164 °C and 500 to 1000 nM.
On the same counts, the results for `O=C(Nc1ccc(Cc2ccccc2)cc1)Nc1ccccc1CCO` [Example 158] are 164 to 166 °C and 100 to 500 nM.
With `O=C(Nc1ccc(Nc2ccccc2)cc1)Nc1ccccc1CCO` [Example 159], the melting point lay in the range of 150 to 151 °C. Moreover, the IC50 in series [1] is 500 to 1000 nM.
Compound `O=C(Nc1ccccc1CCO)Nc1ccccc1Oc1ccccc1` [Example 160] gave a melting point of 190 to 191 °C. Further, the IC50 in series [1] lay in the range of 500 to 1000 nM.
On the same counts, the results for `N#Cc1ccc(-c2ccc(NC(=O)Nc3ccccc3CCO)cc2)cc1` [Example 161] are 213 to 215 °C and 500 to 1000 nM.
The compound `Cc1ccc2ccccc2c1NC(=O)Nc1ccccc1CCO` [Example 164] had a melting point of 204 °C. Also, the IC50 in series [1] was in the range of 500 to 1000 nM.
`Cc1ccc2cc(NC(=O)Nc3ccccc3CCO)ccc2n1` [Example 165] gave a melting point of 207 °C. In addition, in series [1], the IC50 lay in the range of 500 to 1000 nM.
On the same counts, the results for `O=C(Nc1ccccc1CCO)Nc1cccc2ccc(O)cc12` [Example 166] are 212 °C and 500 to 1000 nM.
In turn, `O=C(Nc1ccc(N2CCCCC2)cc1)Nc1ccccc1CCO` [Example 168] showed a melting point of 188 °C. The IC50 in series [1] fell in the range of 500 to 1000 nM.
`O=C(Nc1ccc2c(c1)Cc1ccccc1-2)Nc1ccccc1CCO` [Example 169] registered a melting point greater than 250 °C. Further, the IC50 in series [1] is less than 100 nM.
For `O=C(Nc1cccc(Oc2ccccc2)c1)Nc1ccccc1CCO` [Example 171] the same measures were 145 to 146 °C and less than 100 nM.
In turn, `CCn1c2ccccc2c2cc(NC(=O)Nc3ccccc3CCO)ccc21` [Example 172] had a melting point of 224 to 226 °C. For the same compound, the IC50 in series [1] is less than 100 nM.
On the same counts, the results for `COc1ccc(-c2ccccc2)cc1NC(=O)Nc1ccccc1CCO` [Example 173] are 178 to 180 °C and 100 to 500 nM.
On the same counts, the results for `O=C(Nc1cccc(OCc2ccccc2)c1)Nc1ccccc1CCO` [Example 174] are 146 to 148 °C and less than 100 nM.
For `Cc1ccccc1Oc1ccccc1NC(=O)Nc1ccccc1CCO` [Example 175] the same measures were 170 to 172 °C and 500 to 1000 nM.
With `Cc1ccc(Oc2ccc(NC(=O)Nc3ccccc3CCO)cc2)cc1` [Example 176], the melting point is 164 to 168 °C (dec.). The IC50 in series [1] was less than 100 nM.
On the same counts, the results for `O=C(Nc1ccc(F)c(F)c1)Nc1ccccc1CCO` [Example 179] are 162 to 164 °C and 500 to 1000 nM.
On the same counts, the results for `O=C(Nc1cc(F)cc(F)c1)Nc1ccccc1CCO` [Example 180] are 188 to 189 °C and 100 to 500 nM.
For `Cc1ccc(NC(=O)Nc2ccccc2CCO)cc1F` [Example 181] the same measures were 184 to 186 °C and 500 to 1000 nM.
Consider `O=C(Nc1ccccc1CCO)Nc1cccc(F)c1F` [Example 182], for which the melting point lay within 159 to 161 °C. In series [1], the IC50 fell in the range of 500 to 1000 nM.
On the same counts, the results for `O=C(Nc1cc(F)c(F)cc1F)Nc1ccccc1CCO` [Example 183] are 172 to 174 °C and 500 to 1000 nM.
For `O=C(Nc1ccc(F)c(C(F)(F)F)c1)Nc1ccccc1CCO` [Example 184], the melting point is 158 to 161 °C (dec.). In addition, the IC50 in series [1] is less than 100 nM.
